Assays:
[1] = system: weeds (all species): Echinochloa species, Schoenoplectus mucronatus, Cypres difformis, Heteranthera limosa, Monochoria vaginalis; test: Preflood oxyfluorfen rate test in water-seeded production system (Table 5), percent weeds; format: in vivo; conditions: treatments before flooding; mutant lines containing ROXY
Method: Oxyfluorfen resistant rice lines containing mutant allele ROXY, including 17Y3000, 14G3, 14G4, and 15G4, and the oxyfluorfen susceptible parent M-206 were tested at different rates of oxyfluorfen applied preflood in a water-seeded production system to assess seedling vigor, percent weeds, and yield as shown in Table 5. The design was a randomized complete block with 4 replication and 4 rates of oxyfluorfen (GoalTender®) herbicide. The plot size was 10×20 ft. The percent weeds (all species) were visually determined at 50 days after seeding in the plots and the plots were harvested at maturity. The weed species included a mixture of predominant weeds present including barnyard and late watergrass Echinochloa species, rice field bulrush Schoenoplectus mucronatus, small flower umbrella Cypres difformis, ducksalad Heteranthera limosa, and monochoria Monochoria vaginalis.

[2] = system: weeds (all species): Echinochloa species, Schoenoplectus mucronatus, Cypres difformis, Heteranthera limosa, Monochoria vaginalis; test: Drill-seeded herbicide treatment test (Table 6), percent weeds; format: in vivo; conditions: including combinations with Prowl and Clincher, lines with mutant ROXY allele
Method: Oxyfluorfen resistant rice lines containing mutant allele ROXY, including 17Y3000, 14G3, 14G4, and 15G4, and the oxyfluorfen susceptible parent M-206 without ROXY were tested by applying oxyfluorfen at different rates and times, and in combination with other herbicides in a drill-seeded production system and evaluated for percent weeds and yield as shown in Table 6. Preflush applications were made directly after drill-seeding just before the first irrigation of the basin and preflood applications occurred just before a permanent flood of basin at about 25 days after seeding. The design was a randomized complete block with 2 replication and treatments of oxyfluorfen (GoalTender®) and combinations of oxyfluorfen with the herbicides Prowl® and Clincher®. The active ingredient of Prowl® is pendimethalin (N-(1-ethylpropyl)-3,4-dimethyl-2,6-dinitrobenzenamine). Clincher® is an herbicide for selective postemergence grass weed control in rice with the active ingredient cyhalofop (2-[4-(4-cyano-2-fluorophenoxy) phenoxy] propanoic acid, butyl ester, (R)). The plot size was 6.4×20 ft. The percent weeds (all species) were visually determined at 50 days after seeding in the plots and the plots were harvested at maturity. […]

`CCOc1cc(Oc2ccc(C(F)(F)F)cc2Cl)ccc1[N+](=O)[O-]` [Oxyfluorfen, oxyfluorfen] was tested, and the “weed control” value [1] was “high levels of weed control” and the “weed control” value [2] was “high levels of weed control”.

— patent publication US11180771B2 (priority 2016, dated 2021)
